The text below walks through data of patent US7402311B2, “Composition and method for treating non-bacterial cystitis” (priority 2003, dated 2008).

Data set [1] has as its system patients without positive bacterial cultures localized to the prostatic fluid. As to the kind of experiment: Example II: double blind study using 30 patients. In kind it is in vivo. The protocol: A double blind study using 30 patients without positive bacterial cultures localized to the prostatic fluid are enrolled in a double blind study. Seventeen of the patients receive a composition comprised of quercetin in amount of 500 milligrams, bromelin in an amount of 10 milligrams, and papain in an amount of 10 milligrams as the active ingredients thereof. After a randomized study is completed, an additional fifteen patients are treated in an open label study with only the […]. […] The mean symptom score improves from 21.0 to 13.1 in the group receiving quercetin, but from 20.2 to 18.8 in the placebo group. This represents an improvement of 35%. In those patients which receive only the quercetin, without the papain and bromelin, with obtainable secretions, the white blood cell count in the decreases from 16.8 to 5.3, versus a decrease from 13.1 to 8.3 in the placebo patients.

Data set [2] is described as follows: Tests of bioavailability / transmural intestinal absorption of quercetin. In kind it is in vivo. The settings on record: quercetin alone.
In data set [3] the test system is chronic interstitial cystitis syndromes. As to conditions: patients taking quercetin alone; cited from earlier work.

Each structure is given as a SMILES string.

For the molecule `O=c1c(O)c(-c2ccc(O)c(O)c2)oc2cc(O)cc(O)c12` [quercetin], the “improvement of mean symptom score” value in data set [1] (double blind study) came out at 35%. In addition, the “mean symptom score, after treatment” value in data set [1] (double blind study, end value) is 13.1. Further, the “mean symptom score, before treatment” value in data set [1] (double blind study, start value) is listed as 21.0. In addition, the “white blood cell count, after treatment” value in data set [1] (patients with obtainable secretions, end value) was 5.3. In addition, the “white blood cell count, before treatment” value in data set [1] (patients with obtainable secretions, start value) was determined as 16.8. Besides, in data set [2], the bioavailability entry is “does not have a high bioavailability” and the transmural intestinal absorption entry is reported as “relatively low”. Moreover, in data set [3], the pain result is “controlled”, the severe urinary symptoms result was “least likely to improve” and the symptomatic response result is recorded as “significant”.
